Source: patent publication US5118704A, “Substituted 2-aminotetralins useful as dopaminergics” (Whitby Research, Inc., priority 1991, dated 1992)
Where two headings read alike, the source gives them in different places.

Legend:
dopamine receptor = settings: prior art, result in words; cited from earlier work
dopamine D2 receptors = biological target: T1, dopamine D2 receptors (Bos taurus, UniProt P20288); assay: Radioligand binding to dopamine D2 receptors ([3H]-Spiperone, bovine caudate nuclei membranes); settings: for affinity and selectivity for dopamine D2 receptors (in words): result in words
T1 construct: membranes derived from bovine caudate nuclei assay were employed; from tissue; host or cells: bovine caudate nuclei membranes (brains from a local slaughterhouse)
Description: (§1) To test the selectivity and specificity of the present compounds for binding to dopamine receptors, tests were conducted using the following standard procedures.
(§2) To test binding to dopamine receptors, membranes derived from bovine caudate nuclei assay were employed. Bovine brains were obtained fresh from a local slaughterhouse. The caudate nuclei were dissected out and homogenized in Buffer A (50 mM Tris; 1 mM Na2 -EDTA; 5 mM KCl; 1 mM MgCl2; 2 mM CaCl2; pH 7.4) using a Brinkman Polytron. The homogenate was centrifuged at 40,000 × g for 20 minutes and washed once. The pellett was resuspended in Buffer A, incubated at 37° C. for 15 minutes, then centrifuged. The pellet was washed once more, resuspended to a protein concentration of 5-10 mg/ml in Buffer A and frozen at -70° C. until used.
(§3) The following tritiated drugs were used as radioligands for each of the receptors tested: [^3 H]-Spiperone 21-24 Ci/mmol for D2 receptors, [^3 H]-SCH23390 75-85 Ci/mmol for D1 receptors, and [^3 H]-Para aminoclonidine 48-52 Ci/mmol for α2 -adrenergic receptors. The radio-ligands were incubated with various concentrations of competing drug and the appropriate membrane source for periods of time as follows: 75 minutes at room temperature for D2 receptors, 30 minutes at 37° C. for D1 receptors, or 30 minutes at room temperature for α2 receptors. Specific binding was defined using 1μM butaclamol (D2), 1 μM SCH23390 (D1), or 1 μM yohimbine (α2). In addition the D2 assays contained 30 nM ketaserin in order to block the binding of ^3 H-spiperone to 5HT2 receptors.
(§4) The assays were terminated by filtration using a 24-port Brandell cell harvester over filters that had been previously soaked in 0.1% polyethyleneimine, and the filters were washed three times by filtration of cold buffer. The filters were then placed in 5 ml scintillation vials to which 4 ml of Beckman Ready-Protein was then added, and each vial was counted for 2 minutes in a Beckman 3801 scintillation counter calibrated for conversion of cpm to dpm. Binding data were analyzed using the Ligand program of Munson and Rodbard (1980). The results are presented as Ki values if the data were best fitted to a one-site model, or as KH and KL values if a two-site model produced the better fit.

dopamine D1 receptors = biological target: T2, dopamine D1 receptors (Bos taurus, UniProt Q95136); assay: Radioligand binding to dopamine D1 receptors ([3H]-SCH23390, bovine caudate nuclei membranes)
T2 construct: membranes derived from bovine caudate nuclei assay were employed; from tissue; host or cells: bovine caudate nuclei membranes (brains from a local slaughterhouse)
Description: as §1, §2, §3, §4

α2-adrenergic receptors = biological target: T3, α2-adrenergic receptors (Rattus norvegicus, UniProt P22909); assay: Radioligand binding to α2-adrenergic receptors ([3H]-Para aminoclonidine, rat cerebral cortex membranes)
T3 construct: rat cerebral cortex membranes were employed as a source of receptors; from tissue; host or cells: cerebral cortex membranes of male Sprague Dawley rats
T3 sequence (P22909 1-465): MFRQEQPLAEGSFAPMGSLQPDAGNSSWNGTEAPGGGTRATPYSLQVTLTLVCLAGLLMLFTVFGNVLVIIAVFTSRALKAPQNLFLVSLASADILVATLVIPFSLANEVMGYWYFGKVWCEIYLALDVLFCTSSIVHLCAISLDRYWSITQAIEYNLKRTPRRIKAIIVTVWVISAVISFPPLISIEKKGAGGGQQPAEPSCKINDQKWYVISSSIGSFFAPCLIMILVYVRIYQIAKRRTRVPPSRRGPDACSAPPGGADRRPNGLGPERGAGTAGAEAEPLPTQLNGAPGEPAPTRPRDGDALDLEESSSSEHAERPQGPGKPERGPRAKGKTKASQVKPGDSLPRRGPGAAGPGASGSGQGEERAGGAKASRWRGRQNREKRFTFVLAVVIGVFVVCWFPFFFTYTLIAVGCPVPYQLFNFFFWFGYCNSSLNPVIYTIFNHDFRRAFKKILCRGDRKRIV
Description: as §1
To test binding of the compounds to α2 -adrenergic receptors, rat cerebral cortex membranes were employed as a source of receptors. Male Sprague Dawley rats were killed by decapitation and the brains removed. The cerebral cortices were homogenized in 50 mM Tris; 2 mM MgCl2 (pH 7.4), and centrifuged at 40,000 × g for 10 minutes. The pellet was washed once, resuspended in Tris/MgCl2 and incubated with 8 units/ml adenosine deaminase at 37° C. for 30 minutes. The homogenate was centrifuged, washed once, resuspended to a protein concentration of 5-10 mg/ml and frozen at -70° C. until use.
as §3, §4

dopamine D2 = settings: result in words; cited from earlier work
[1] = [3H]-Spiperone, bovine caudate membranes, 75 minutes at room temperature, 30 nM ketaserin, read-out: RECEPTOR AFFINITIES Ki, D2 (KL)
[2] = [3H]-SCH23390, bovine caudate membranes, 30 minutes at 37° C., read-out: RECEPTOR AFFINITIES Ki, D1 (KL)
[3] = [3H]-Para aminoclonidine, rat cerebral cortex membranes, 30 minutes at room temperature, read-out: RECEPTOR AFFINITIES Ki, α2

T2 sequence (Q95136 whole entry): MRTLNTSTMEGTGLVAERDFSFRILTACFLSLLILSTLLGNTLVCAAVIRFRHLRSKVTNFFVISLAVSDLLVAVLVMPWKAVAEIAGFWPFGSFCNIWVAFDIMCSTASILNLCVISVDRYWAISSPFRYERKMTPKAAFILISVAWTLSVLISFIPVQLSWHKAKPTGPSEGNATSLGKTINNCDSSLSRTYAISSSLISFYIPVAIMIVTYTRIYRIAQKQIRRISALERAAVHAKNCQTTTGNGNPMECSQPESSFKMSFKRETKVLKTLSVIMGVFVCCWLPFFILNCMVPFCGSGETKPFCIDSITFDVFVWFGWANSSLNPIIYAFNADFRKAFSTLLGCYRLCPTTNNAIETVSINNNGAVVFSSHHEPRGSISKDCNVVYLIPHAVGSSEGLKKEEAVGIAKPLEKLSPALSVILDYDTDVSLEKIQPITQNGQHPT
T1 sequence (P20288 whole entry): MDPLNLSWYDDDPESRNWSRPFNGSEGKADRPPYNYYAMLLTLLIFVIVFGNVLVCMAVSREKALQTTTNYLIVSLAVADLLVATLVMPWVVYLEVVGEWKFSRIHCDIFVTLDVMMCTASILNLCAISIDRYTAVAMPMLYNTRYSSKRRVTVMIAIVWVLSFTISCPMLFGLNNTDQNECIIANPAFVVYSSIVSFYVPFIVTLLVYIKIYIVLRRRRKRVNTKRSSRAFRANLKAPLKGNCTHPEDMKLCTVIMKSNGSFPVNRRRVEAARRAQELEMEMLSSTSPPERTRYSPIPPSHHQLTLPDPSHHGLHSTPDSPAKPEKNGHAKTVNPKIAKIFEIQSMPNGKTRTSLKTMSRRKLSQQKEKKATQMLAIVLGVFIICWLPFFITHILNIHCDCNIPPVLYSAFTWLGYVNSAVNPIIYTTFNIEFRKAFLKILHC

| Compound | Ki (dopamine D2 receptors; [1]) [nM] | Ki (dopamine D1 receptors; [2]) [nM] | Ki (α2-adrenergic receptors; [3]) [nM] | also measured |
| --- | --- | --- | --- | --- |
| CN1CCc2cccc3c2[C@H]1Cc1ccc(O)c(O)c1-3 [apomorphine] | – | – | – | dopaminergic activity (in words) (dopamine receptor): high activity |
| CCCN(CCCn1c(C)ccc1C)C1CCc2c(O)cccc2C1 (stereo not shown) [Example 2] | – | – | – | Ki (dopamine D2 receptors): 26 nM; affinity and selectivity for dopamine D2 receptors (in words) (dopamine D2 receptors; listed as 2,5-dimethyl-N-propyl-N-(1,2,3,4-tetrahydro-5-hydroxy-2-naphthalenyl)-1H-pyrrole): high affinity and selectivity for binding to D2 dopamine receptors; affinity and selectivity for dopamine D2 receptors (in words) (dopamine D2 receptors; listed as 6-[[3-(2,5-dimethyl-1H-pyrrol-1-yl)propyl]propylamino-5,6,7,8-tetrahydro-1-napht): high affinity and selectivity for binding to dopamine D2 receptors; Ki (dopamine D1 receptors): 2700 nM; Ki (α2-adrenergic receptors): 1600 nM |
| CCCN(CCc1cccs1)C1CCc2c(O)cccc2C1 (racemic) [Example N-0437, reference compound] | – | – | – | Ki (dopamine D2 receptors): 110 nM; Ki (dopamine D1 receptors): 1000 nM; Ki (α2-adrenergic receptors): 190 nM; dopamine D2 agonist potency (in words) (dopamine D2): potent dopamine D2 agonist |
| CCCN(CCCN1C(=O)c2ccccc2C1=O)C1CCc2c(O)cccc2C1 (stereo not shown) [Example 10, 2-[3-[propyl(1,2,3,4-tetrahydro-5-hydroxy-2-naphthalenyl)amino]propyl]-1H-isoindole-1,3(2H)-dione] | 1260 | 3230 | 142 | – |
| CCCN(CCCN1Cc2ccccc2C1)C1CCc2c(O)cccc2C1 (stereo not shown) [Example 11, 6-[[3-(1,3-dihydro-2H-isoindol-2-yl)propyl]propylamino]-5,6,7,8-tetrahydro-1-napththalenol] | 720 | 3000 | 1130 | – |

More lines, main results first:

| Ki (dopamine D2 receptors; [1]) [nM] | Ki (dopamine D1 receptors; [2]) [nM] | Ki (α2-adrenergic receptors; [3]) [nM] | Compound | also measured |
| --- | --- | --- | --- | --- |
| 1260 | 14000 | 10000 | CCCN(CCN1C(=O)c2ccccc2C1=O)C1CCc2c(O)cccc2C1 (stereo not shown) [Example 13, 2-[2-[propyl(1,2,3,4-tetrahydro-5-hydroxy-2-naphthalenyl)amino]ethyl]-1H-isoindole-1,3(2H)-dione] | – |
| 52 | 4860 | 2630 | CCCN(CCN1Cc2ccccc2C1)C1CCc2c(O)cccc2C1 (stereo not shown) [Example 14, 6[[2-(1,3-dihydro-2H-isoindol-2-yl)ethyl]propylamino]-5,6,7,8-tetrahydro-1-naphthalenol] | – |
| 100 | 10000 | 1400 | CCCN(CCn1c(C)ccc1C)C1CCc2c(O)cccc2C1 (stereo not shown) [Example 4, 6-[[2-(2,5-dimethyl-1H-pyrrol-1-yl)ethyl]propylamino]-5,6,7,8-tetrahydro-1-naphthalenol] | – |
